Assay results published in patent publication US4317826A, “N,N'-Bis[substituted-1,2,3,4 tetrahydroisoquinolyl]disulfonylimides and antiallergic compositions and method of use” (SmithKline Corporation, priority 1980, dated 1982).

system: slow reacting substance of anaphylaxis (SRS-A); assay: Inhibition of SRS-A induced contraction of guinea pig ileum; format: cell-based; settings: Cavia porcellus, 0.25 h; compound concentration 5 × 10^-5 M; partially purified SRS-A from guinea pig lung at 40 μg/ml; 15 minute incubation; read-out: Percent Antagonism
Protocol: The SRS-A antagonist activity of the compounds of this invention is measured by the ability of the active medicament to inhibit SRS-A induced contraction of guinea pig ileum. In this test system, sections of ileum are resected from guinea pigs and placed in 5 ml. tissue baths containing a modified Tyrode's solution. One end of the tissue is fixed to a glass tissue holder, the other is connected to a force-displacement transducer and the tissue is placed under a tension of 500 mg. Isometric tissue contractions are recorded on a six channel polygraph. Baths are constantly aerated with 95% O2 -5% CO2. After a 20 minute stabilization period a concentration of the appropriate agonist which provides a contraction height of 60-80% of the maximum obtainable to that agonist (as determined from full sequential concentration--response curves in separate experiments) is added to the tissue bath and the response recorded. The procedure is repeated until reproducible responses are obtained. For most agonists, two applications in rapid succession, followed 15 minutes later by a third, is sufficient to establish reproducibility. Experimental tissues are incubated with the selected concentration of the test compounds for 15 minutes. Experimental and control tissues are subjected to 5 bath changes during the incubation interval. Changes in bath fluid during the incubation period are helpful in insuring the reproducibility of tissue responses to the agonist. The same concentration of the agonist is reapplied in the presence of the test compound and the response registered and compared with controls. Percent inhibition produced by the test compound is calculated by subtracting the mean percentage change in control tissue from the mean percentage change in tissues exposed to the test compound. Additional compounds are then evaluated as long as the tissue remains reproducibly responsive to the agonist. Six tissues obtained from 6 animals are used simultaneously--3 controls and 3 experimental.
The compounds of this invention tested at concentrations of from 5×10^-5 to 5×10^-6 produce marked antagonism of partially purified slow reacting substance of anaphylaxis obtained from guinea pig lung. The agonist is employed at a concentration of 40 μg/ml. Representative of this effect, tabulated below are a number of the claimed compounds and percent antagonism of SRS-A at various compound concentrations.

Compound | inhibition at 50 µM [%]
O=S(=O)(NS(=O)(=O)N1CCc2cc(Cl)ccc2C1)N1CCc2cc(Cl)ccc2C1 [H 6-Cl H H] | 84.2

same assay, conditions: Cavia porcellus, 0.25 h; compound concentration 5 × 10^-6 M; partially purified SRS-A from guinea pig lung at 40 μg/ml; 15 minute incubation; read-out: Percent Antagonism

Compound | inhibition at 5 µM [%]
O=S(=O)(NS(=O)(=O)N1CCc2ccc(C(F)(F)F)c(C(F)(F)F)c2C1)N1CCc2ccc(C(F)(F)F)c(C(F)(F)F)c2C1 [7-CF3 8-CF3 H H] | 26.8
Cc1ccc2c(c1Cl)CN(S(=O)(=O)NS(=O)(=O)N1CCc3ccc(C)c(Cl)c3C1)CC2 [7-CH3 8-Cl H H] | 49.9
O=S(=O)(NS(=O)(=O)N1CCc2cc(Cl)c(Cl)cc2C1)N1CCc2cc(Cl)c(Cl)cc2C1 [7-Cl 6-Cl H H] | 56.3
CC(C)C1c2c(ccc(Cl)c2Cl)CCN1S(=O)(=O)NS(=O)(=O)N1CCc2ccc(Cl)c(Cl)c2C1C(C)C (centres unmarked) [7-Cl 8-Cl CH(CH3)2 H] | 63
CC1Cc2ccc(Cl)c(Cl)c2CN1S(=O)(=O)NS(=O)(=O)N1Cc2c(ccc(Cl)c2Cl)CC1C (centres unmarked) [7-Cl 8-Cl H CH3] | 52.5
O=S(=O)(NS(=O)(=O)N1CCc2ccc(Cl)c(Cl)c2C1)N1CCc2ccc(Cl)c(Cl)c2C1 [7-Cl 8-Cl H H, N,N'-bis(7,8-dichloro-1,2,3,4,-tetrahydroisoquinolyl)disulfonylimide] | 42
O=S(=O)(NS(=O)(=O)N1CCc2ccc(Cl)c(Cl)c2C1C1CC1)N1CCc2ccc(Cl)c(Cl)c2C1C1CC1 (centres unmarked) [7-Cl 8-Cl [drawing 3] H] | 60
O=S(=O)(NS(=O)(=O)N1CCc2ccc(Cl)c(SC(F)(F)C(F)F)c2C1)N1CCc2ccc(Cl)c(SC(F)(F)C(F)F)c2C1 [7-Cl 8-SCF2 CF2 H H H] | 36.2
O=S(=O)(NS(=O)(=O)N1CCc2c(Br)ccc(Br)c2C1)N1CCc2c(Br)ccc(Br)c2C1 [8-Br 5-Br H H] | 22.9
O=S(=O)(NS(=O)(=O)N1CCc2c(Br)cccc2C1)N1CCc2c(Br)cccc2C1 [H 5-Br H H] | 45.2
